In test [1] the target is T1, HIV protease (Human immunodeficiency virus type 1 group M subtype B, UniProt P04585).
T1 construct: plasmid containing HIV protease under the control of the T7 promotor; made in house; host or cells: E. coli (crude lysate, lac promoter)
Kind of test: Cell Free HIV Protease Inhibition Assay (gag polyprotein). It counts as biochemical. Conditions: HIV gag polyprotein substrate, 30° C. From the text: Procedure III: Cell Free Protease Inhibition Assay Materials:
HIV gag polyprotein corresponding to all of p17 and 78 amino acids of p24, produced by in vitro translation using rabbit reticulocyte lysate and mRNA prepared in vitro from plasmid encoding full length gag polyprotein linerized with the restriction enzyme Pst 1. (see S. Erickson-Viitanen et al., AIDS Research and Human Retroviruses, 5 (6), 577 (1989) for plasmid construction, and basis for assay).
Source of protease: Either (A) crude E. coli lysate of bacteria harboring a plasmid containing HIV protease under the control of the lac promotor, used at a final concentration of 0.5 mg/ml, or (B) inclusion bodies of E. coli harboring plasmid containing HIV protease under the control of the T7 promotor (Cheng et al., Gene, in press (1990)). Such inclusion bodies were solubilized in 8M urea, 50 mM Tris pH 8.0. Protease activity was recovered by dilution of the inclusion bodies 20-fold in buffer containing 50 mM Sodium Acetate, pH 5.5, 1 mM EDTA, 10% glycerol and 5% ethylene glycol. This protease source was used at a final concentration of 0.00875 mg/ml.
Inhibitory compounds were dissolved in sufficient DMSO to make a 2.5 mM stock concentration. All further dilutions were done in DMSO.
Into sterile test tubes were placed the following:
14 ul HIV protease in Phosphate Buffered Saline (20 mM Sodium Phosphate, 0.15M NaCl, pH 6.5).
5 μl of in vitro translation products.
Reactions were incubated at 30° C., then quenched by the addition of Sample buffer. See U. K. Laemmli, Nature, 1970, 227:680-685.
One fourth of each sample was analyzed on an 8-16% gradient denaturing acrylamide gel (Novex, Inc), according to Laemmli. Following electrophoresis, gels were fixed, impregnated with Enhance (Du Pont NEN, Boston, Mass.) and dried according to manufacturers instructions (NEN). Dried fluorographs were exposed to film and/or quantitated using an Ambis radioanalytic scanner.
Each group of test compounds was compared to the values obtained for pepstatin, a well known inhibitor of acid proteases . Inhibitory concentration for 50% inhibition (IC50) is determined from plots of log concentration inhibitor versus % inhibition of protease activity.
Biological Activity: IC50 is the concentration necessary for reducing the activity of the enzyme by 50%.

Test [2] has as its system HIV(3B) or HIV(RF) in MT-2 human T-cells. The test is described as follows: HIV Low Multiplicity Assay (XTT, MT-2 cells). The format is cell-based. Conditions: Human immunodeficiency virus 1, MT2, 168 h, 90% protection, multiplicity of infection 0.01, 7 days. The procedure: HIV Low Multiplicity Assby
MT-2, a human T-cell line, was cultured in RPMI medium supplemented with 5% (v/v) heat inactivated fetal calf serum (FCS), L-glutamine and gentamycin (GIBCO). Human immunodeficiency virus strains HIV(3B) and HIV(Rf) were propagated in H-9 cells in RPMI with 5% FCS. XTT, benzene-sulfonic acid, 3,3'-[1-[(phenylamino)carbonyl]-3,4-tetrazolium]bis(4-methoxy-6-nitro)-, sodium salt, was obtained from Starks Associates, Inc.
Test compounds were dissolved in dimethyl-sulfoxide to 5 mg/ml and serially diluted into RPMI medium to ten times the desired final concentration. MT-2 cells (5×10^4 /0.1 ml) were added to each well of a 96 well culture plate and 0.02 ml of the appropriate test compound solution was added to the cells such that each compound concentration was present in two wells. The cells and compounds were allowed to sit for 30 minutes at room temperature. HIV(3B) or HIV(RF) (~5×10^5 plaque forming units/ml) was diluted in medium and added to the cell and compound mixtures to give a multiplicity of infection of 0.01 plaque forming unit/cell. The mixtures were incubated for 7 days at 36° C., during which time the virus replicated and caused the death of unprotected cells. The percentage of cells protected from virus induced cell death was determined by the degree of metabolism of the tetrazolium dye, XTT. In living cells, XTT was metabolized to a colored formazan product which was quantitated spectrophotometrically at 450 nm. The amount of colored formazan was proportional to the number of cells protected from virus by the test compound. The concentration of compound protecting either 50% (IC50) or 90% (IC90) with respect to an uninfected cell culture was determined.

These results are taken from patent US5491149A, “Dihydroxypropylamine containing retroviral protease inhibitors” (The Du Pont Merck Pharmaceutical Company, priority 1994, dated 1996).

Structures are written as SMILES. Values after ≈ are worked out from the molar mass of the structure shown.

A word on the IC50: it is the midpoint of a concentration-inhibition curve. A word on the IC90: it is the concentration needed for an effect of 90%. The low end stands for greater potency, the high end for weaker potency.

As to `CC(C)[C@H](NC(=O)OCc1ccccc1)C(=O)N[C@@H](Cc1ccccc1)[C@H](O)[C@H](O)CN1C[C@H]2CCCC[C@H]2C[C@H]1C(=O)NC(C)(C)C` (relative stereo) [Example 3, [3-[2[1R*(R*),2R*,3S*],3a,4ab,8ab]]-(phenylmethyl)[1-[[[4-[3-[[(1,1-dimethylethyl)amino]carbonyl]octahydro-2(1H)-isoquinolinyl-2,3-dihydroxy-1-(phenylmethyl)butyl]amino]carbonyl]-2-methylpropyl]carbamate], 2110 nM corresponded to half-maximal inhibition in test [1] (IC50). For the same compound, in test [2], it took 1.7 µg/mL (≈ 2.56 µM) to reach the 90% level (IC90).
For `CC(C)(C)NC(=O)[C@@H]1C[C@@H]2CCCC[C@@H]2CN1C[C@@H](O)[C@@H](O)[C@H](Cc1ccccc1)NC(=O)[C@H](CC(N)=O)NC(=O)c1ccc2ccccc2n1` [Example 2, [3S-[2[1R*(R*),2R*,3S*],3a,4ab,8b]]-N1-[4-[3-[[(1,1-dimethylethyl)amino]carbonyl]octahydro-2(1H)-isoquinolinyl]-2,3-dihydroxy-1-(phenylmethyl)butyl]-2-[(2-quinolinylcarbonyl)amino]butanediamide] the same measures were 542 nM and 0.3 µg/mL (≈ 0.428 µM).
As to `CC(C)(C)NC(=O)[C@@H]1C[C@@H]2CCCC[C@@H]2CN1C[C@H](O)[C@@H](O)[C@H](Cc1ccccc1)NC(=O)[C@H](CC(N)=O)NC(=O)c1ccc2ccccc2n1` [Example 7, [3S-[2[1R*(R*),2R*,3R*],3a,4ab,8ab]]-N1-[4-[3-[[(1,1-dimethylethyl)amino]carbonyl]octahydro-2(1H)-isoquinolinyl]-2,3-dihydroxy-1-(phenylmethyl)butyl]-2-[(2-quinolinylcarbonyl)amino]butanediamide], the half-inhibitory concentration (IC50) in test [1] is 2840 nM. In test [2], this compound showed an IC90 of 2.2 µg/mL (≈ 3.14 µM).
`CC(C)(C)NC(=O)[C@@H]1C[C@@H]2CCCC[C@@H]2CN1C[C@@H](O)[C@@H](O)[C@H](Cc1ccccc1)NC(=O)[C@H](CC(N)=O)NC(=O)OCc1ccccc1` [Example 1, [3S-[2[1R*(R*),2R*,3S*],3a,4ab,8ab]]-(phenylmethyl)[3-amino-1-[[[4-[3-[[(1,1-dimethylethyl)amino]carbonyl]octahydro-2(1H)-isoquinolinyl]-2,3-dihydroxy-1(phenylmethyl)butyl]amino]carbonyl]-3-oxopropyl]carbamate] showed an IC50 in test [1] of 3020 nM. This compound also gave an IC90 in test [2] of 2 µg/mL (≈ 2.94 µM).
Take `CC(C)(C)NC(=O)[C@@H]1C[C@@H]2CCCC[C@@H]2CN1C[C@@H](O)[C@H](O)[C@H](Cc1ccccc1)NC(=O)[C@H](CC(N)=O)NC(=O)OCc1ccccc1` [Example 8, [3S-[2[1R*(R*),2S*,3S*],3a,4ab,8ab]]-(phenylmethyl)[3-amino-1-[[[4-[3-[[(1,1-dimethylethyl)amino]carbonyl]octahydro-2(1H)-isoquinolinyl-2,3-dihydroxy-1-(phenylmethyl)butyl]amino]carbonyl]-3-oxopropyl]carbamate]: the IC50 in test [1] is > 18400 nM. In addition, in test [2], the IC90 was > 30 µg/mL.
For `CC(C)(C)NC(=O)[C@@H]1C[C@@H]2CCCC[C@@H]2CN1C[C@H](O)[C@H](O)[C@H](Cc1ccccc1)NC(=O)[C@H](CC(N)=O)NC(=O)c1ccc2ccccc2n1` [Example 6, [3S-[2[1R*(R*),2S*,3R*],3a,4ab,8ab]]-N1-[4-[3-[[(1,1-dimethylethyl)amino]carbonyl]octahydro-2(1H)-isoquinolinyl]-2,3-dihydroxy-1-(phenylmethyl)butyl]-2-[(2-quinolinylcarbonyl)amino]butanediamide] the same measures were > 17800 nM and 10 µg/mL (≈ 14.3 µM).
For `CC[C@H](C)[C@H](NC(=O)OCc1ccccc1)C(=O)N[C@@H](Cc1ccccc1)[C@H](O)[C@H](O)CN1C[C@H]2CCCC[C@H]2C[C@H]1C(=O)NC(C)(C)C` [Example 4, [3S-[2[1R*(R*,R*),2R*,3S*],3a,4ab,8ab]]-(phenylmethyl)[1-[[[4-[3-[[(1,1-dimethylethyl)amino]carbonyl]octahydro-2(1H)-isoquinolinyl]-2,3-dihydroxy-1-(phenylmethyl)butyl]amino]carbonyl]-2-methylbutyl]carbamate] the same measures were 2930 nM and 1 µg/mL (≈ 1.47 µM).
Take `CC(C)(C)NC(=O)[C@@H]1C[C@@H]2CCCC[C@@H]2CN1C[C@@H](O)[C@H](O)[C@H](Cc1ccccc1)NC(=O)[C@H](CC(N)=O)NC(=O)c1ccc2ccccc2n1` [Example 9, [3S-[2[1R*(R*),2S*,3S*],3a,4ab,8ab]]-N1-[4-[3-[[(1,1-dimethylethyl)amino]carbonyl]octahydro-2(1H)-isoquinolinyl]-2,3-dihydroxy-1-(phenylmethyl)butyl]-2-[(2-quinolinylcarbonyl)amino]butanediamide]: the half-inhibitory concentration (IC50) in test [1] is > 17800 nM. Also, it took 3 µg/mL (≈ 4.28 µM) to reach the 90% level in test [2] (IC90).
In the case of `CC(C)(C)NC(=O)[C@@H]1C[C@@H]2CCCC[C@@H]2CN1C[C@H](O)[C@H](O)[C@H](Cc1ccccc1)NC(=O)[C@H](CC(N)=O)NC(=O)OCc1ccccc1` [Example 5, [3S-[2[1R*(R*),2S*,3R*],3a,4ab,8ab]]-(phenylmethyl)[3-amino-1-[[[4-[3-[[(1,1-dimethylethyl)amino]carbonyl]octahydro-2(1H)-isoquinolinyl]-2,3-dihydroxy-1-(phenylmethyl)butyl]amino]carbonyl]-3-oxopropyl]carbamate], the IC50 in test [1] is > 18400 nM. For the same compound, the 90% effect concentration (IC90) in test [2] is > 30 µg/mL.
